In patent US20100204460A1, “NATURAL BRASSINOSTEROIDS FOR USE FOR TREATING HYPERPROLIFERATION, TREATING PROLIFERATIVE DISEASES AND REDUCING ADVERSE EFFECTS OF STEROID DYSFUNCTION IN MAMMALS, PHARMACEUTICAL COMPOSITION AND ITS USE” (priority 2007, published 2010):
“Also recorded” adds a separate entry of the source.

Key:
Type in all cases: cell-based
[1] = test system: LNCaP cells; assay: Western blot of cell cycle and apoptosis related proteins, LNCaP; details: IC50 for 6, 12, 24 h vs untreated control
Description: The cells were seeded in a density 1.6×10^4 cells/cm^2 (LNCaP), 1.4×10^4 cells/cm^2 (DU-145, MDA-MB-468 and MCF-7) using culture medium in 100-mm culture Petri dishes. After reaching of 70-80% confluence, the cells were treated with tested compounds 9 in concentration IC50 that were evaluated by MTT analysis described above. DMSO was used as a vehicle for controls. After 6, 12 and 24 h treatment, the cells were washed with cold PBS and scraped in ice-cold protein extract ion buffer (50 mM HEPES, pH 7.5; 150 mM NaCl; 1 mM EDTA; 2.5 mM EGTA; 10% glycerol; 0.1% Tween 20) with protease and phosphatase inhibitors (25 μL/mL phenylmethanesulphonyl fluoride; 2.5 μL/mL leupeptin; 0.1 mM Na3VO4; 2.5 μL/mL aprotinin; 10 mM β-glycerol-phosphate; 1 mM dithiothreitol). The lysates were collected into microfuge tube and incubated on ice for 1 h. Cells were incubated 60 min at 4° C. under time by time shaking in protein extraction buffer. After centrifugation at 45 000×g for 30 min at 4° C., supernatant was collected, aliquoted, and stored at −80° C. The protein content in the lysates was measured by a Bredford assay (Bio-Rad Laboratories, Hercules, Calif., USA) according to the manufacture's protocol.
For Western blot analysis, equal aliquots of proteins (15-30 μg/well) were loaded on 10% or 12% SDS-PAGE gels and transferred onto nitrocellulose membranes (Amersham Biosciences, Vienna, Austria) by semi-dry electrophoretic transfer. Coloured marker (Rainbow™, Amersham Biosciences, Vienna, Austria) was used as a protein molecular weight standard. The non-specific binding sites were blocked by incubating the blot with 5% (w/v) non-fat dry milk in PBS for 2 h. The blot was incubated overnight in 4° C. with appropriate primary antibody that detects the protein epitope of interest and finally washed in PBS with 0.1% Tween 20 for 1 h. The blot was incubated with the diluted secondary goat anti-mouse IgG-horseradish peroxidase conjugated antibody (dilution 1:6000, Santa Cruz Biotechnology, Santa Cruz, Calif., USA) or goat anti-rabbit IgG-horseradish peroxidase conjugated antibody (dilution 1:2000, DakoCytomation, Glostrup, Denmark) for 45 min in 4° C. The membrane was washed in PBS with 0.1% Tween 20 for 1 h. The proteins were detected using a chemiluminescence detection system (Amersham Biosciences, Vienna, Austria) according to the protocol provided by the manufacturer. Equality of loaded proteins was confirmed by Ponceau S membrane staining (Sigma, St. Louis, Mo., USA) and by detection of anti-tubulin-α or anti-mcm-7 antibodies. The experiments were repeated three times. The protein expressions in treated cells were compared to untreated controls.
Western blot analysis was used to detect changes in apoptosis related protein expression in breast and prostate cancer cell lines. […] This decreased expression of Bid can indicate a cleavage of the protein after treatment by BRs. In DU-145 cell line, expression of pro-apoptotic proteins Bax and Bid was unchanged. […] On the other hand, caspase cleavage was not found in DU-145 cells. Poly-(ADP-ribose) polymerase (PARP) positive expression in controls of prostate cancer cell lines was observed but brassinosteroids had no effect on its expression nor on its degradation within the period 6/12/24 h (FIG. 6B).

[2] = test system: MDA-MB-468 cells; assay: TUNEL detection of apoptosis, MDA-MB-468; details: IC50 concentration, control 0.0 ± 0.0
Description: TdT-Mediated dUTP nick end labeling (TUNEL) detection of apoptosis index. For detection of apoptotic cells, the TUNEL assay was used. […] After period of treatment, the cells were washed with PBS and fixed on the slides with cold acetone-methanol (1:1, v/v) for 10 min. Apoptosis-induced nuclear DNA fragmentation was detected by terminal deoxynucleotidyl transferase-mediated UTP nick end labeling (TUNEL) technique according to the producer protocol (In Situ Cell Death Detection Kit; Roche Diagnostics, Mannheim, Germany). The cells were then washed three times in PBS and stained with 4′-6-diamidino-2-phenylindole (DAPI; 50 μg/ml; Sigma, St. Louis, Mo., USA) for 10 min in the dark. The coverslips with cells were washed in deionized water and mounted on glass slides, using the hydrophilic medium Mowiol (Calbiochem, Fremont, Calif., USA) in glycerol-PBS (1:3, v/v) for fluorescence. Cells were visualized using fluorescence microscopy and compared with control cells. TUNEL staining achieved to confirm apoptosis in all cell lines.

[3] = test system: DU-145 cells; assay: Cell cycle distribution by flow cytometry, DU-145; details: IC50, 24 h; for Cell cycle distribution S: control 15%; for Apoptosis subG1 fraction: control 20%; for Cell cycle distribution G2/M: control 23%; for Cell cycle distribution G1: control 62%
Description: In the MCF-7 breast cancer cell line that has been the most widely studied experimental cell system, the typical growth inhibitory response to antiestrogens is decrease in the proportion of cells synthesising DNA (S phase) after antiestrogen treatment. This decrease in S phase coincides with an increase in the proportion of cells in G0/G1 phase. The activity of the androgen receptor (AR) is also regulated by alterations in cell signaling. There has been reported ligand independent activation of AR in prostate cancer cells by different growth factors. As the AR can be activated in the absence of hormone, it appears that the conditions may be more restricted than those observed for ER. Use of physiologic doses of ligand (dihydrotestosterone, DHT) is of importance as the LNCaP cells proliferate only at DHT concentration of 10^−9 M or lower. […] In contrast to proliferation, transactivation of AR specific target genes (e.g. PSA) continues to increase with DHT doses of 10^−10 M and higher. It might be accepted for estrogen or androgen receptors as stronger cytotoxic activities of brassinosteroids 9 or 6 on hormone-sensitive (MCF-7, LNCaP) compared to hormone-insensitive (MDA-MB-468, DU-145) cell lines were found. Therefore we explored the possibility of cell cycle perturbation by BRs in different cancer cell lines. Flow cytometry was used to evaluate the number of cells in the particular phases of the cell cycle, including subG1 peak detection. Control and treated cells were washed twice with cold PBS and centrifuged at 360×g for 10 min at 4° C., and fixed with chilled ethanol (70%; v/v) by low-speeded vortexing. For detection of DNA content analysis, propidium iodide staining was used. The cells were analyzed using a FACSCalibur flow cytometer (BD Biosciences, San Jose, Calif.).
Flow-cytometric detection of apoptosis. Several studies have declared that the induction of apoptosis may be cell cycle-dependent. Therefore, in our next series of experiments, we tested if brassinosteroids 9 or 6 cause apoptosis of the breast and prostate cancer cells via cell cycle blockage. From this reason we carried out DNA cell cycle analysis by flow cytometry based on detection of endonucleolytic DNA degradation that results in extraction of low molecular weight DNA from the cells. […] The subG1 peak containing apoptotic bodies was however not observed in MCF-7 cells.

Row | SMILES | MDM-2 expression (Western blot) [1] | anti-apoptotic protein Bcl-2 expression (Western blot) [1] | caspase-3 cleavage / activation (Western blot) [1] | p21Waf1/Cip1 expression (Western blot) [1] | p27Kip1 expression (Western blot) [1] | p53 expression (Western blot) [1] | percentage of TUNEL positive cells ([2]; 6 h) [%] | percentage of TUNEL positive cells ([2]; 12 h) [%] | percentage of TUNEL positive cells ([2]; 24 h) [%] | Cell cycle distribution S [3] [%] | Apoptosis subG1 fraction [3] [%] | Cell cycle distribution G2/M [3] [%] | Cell cycle distribution G1 [3] [%] | pro-apoptotic Bax level (Western blot) [1]
1 | CC(C)[C@@H](C)[C@@H](O)[C@H](O)[C@@H](C)[C@H]1CC[C@H]2[C@@H]3COC(=O)[C@H]4C[C@H](O)[C@H](O)C[C@]4(C)[C@H]3CC[C@]12C [Brassinosteroid 6, 24-Epibrassinolide] | unchanged | decreased after treatment with 9 (6, 12 and 24 h) or 6 (6 and 24 h) | activation of caspase-3 after 24 h; also recorded: degradation of procaspase-3 into cleaved fragments was detected after all time points of treatment with 9 and after 24 h treatment with 6 | decreased expression of p21^Waf1/Cip1 after 6 and 24 h | decreased expression of p21^Waf1/Cip1 after 6 and 24 h treatment and p27^Kip1 protein expression after 6 and 12 h | decreased expression of p53 after brassinosteroids 9 or 6 treatment was found after 12 and 24 h | 4.7 ± 0.6 | 16.7 ± 4.7 | 18.3 ± 3.0 | 8 | 24 | 39 | 53 | –
2 | CC[C@@H](C(C)C)[C@@H](O)[C@H](O)[C@@H](C)[C@H]1CC[C@H]2[C@@H]3CC(=O)[C@H]4C[C@H](O)[C@H](O)C[C@]4(C)[C@H]3CC[C@]12C [Brassinosteroid 9, 28-Homocastasterone] | increased after 9 treatment (6 h) | decreased after treatment with 9 (6, 12 and 24 h); also recorded: significant decrease in the levels of anti-apoptotic Bcl-2 protein | induced degradation of caspase-3 into its cleaved fragments after all time points (6, 12 and 24 h); also recorded: degradation of procaspase-3 into cleaved fragments was detected after all time points | decreased level of p21^Waf1/Cip1 after 12 h | increased level of p27^Kip1 after 24 h | decreased expression of p53 after brassinosteroids 9 or 6 treatment was found after 12 and 24 h | 1.7 ± 0.6 | 2.3 ± 0.6 | 4.3 ± 0.6 | 8 | 28 | 46 | 46 | increased level of pro-apoptotic Bax after the 9 treatment after 6 and 12 h; also recorded: increase in the pro-apoptotic Bax protein
